The text below walks through data of article PMC8692993, “PPARα and PPARγ activation is associated with pleural mesothelioma invasion but therapeutic inhibition is ineffective” (iScience, 2021).

Series [1] in a line: In vitro metabolic stability in mouse liver microsomes. The series is classed as in vitro ADME. As to the method:
The test compound (1 μM) was incubated at 37°C with mouse liver microsomes (XenoTech) at a protein concentration of 0.4 mg/mL. The metabolic reaction was initiated by the addition of a NADPH-regenerating system and quenched at various time points over a 60 min incubation period by the addition of acetonitrile. Control samples (without NADPH) were included (and quenched at 2, 30, 60 min) to monitor for potential degradation in the absence of cofactor. The degradation half-life and in vitro intrinsic clearance (in vitro CLint) in microsomes were calculated using the apparent first order degradation rate constant for substrate depletion ([Obach, 1999]).
Compound quantification was performed using a Xevo G2 QTOF (in vitro metabolic stability) using positive electrospray ionisation under MS^E mode or a Waters Xevo TQD (mouse exposure) mass spectrometer using positive electrospray ionisation multiple-reaction monitoring mode. Compounds were eluted using an acetonitrile-water/0.05% formic acid gradient at a flow rate of 0.4 mL/min operating over a 4 min cycle on a Waters Acquity UPLC using a Supelco Ascentis Express RP C8 column (50 × 2.1 mm, 2.7 μm). Extraction was performed by precipitation using acetonitrile (1:1 volume ratio for microsomes and 2:1 volume ratio for plasma samples) followed by centrifugation. Compound concentrations were quantified against calibration standards prepared in an appropriate matrix to match the test samples (e.g. plasma or microsomes).

A further series relates to AB1. Kind of series: MTT cell metabolic activity assay, AB1. The series is classed as cell-based, mouse. The settings on record: AB1, 48 h, 0.391-100 μM; effect at higher micromolar concentrations. As to the method: Cells were harvested and seeded in 96-flat well plates (Corning) at a density of 5 x 10^4 cells/mL overnight. Media was removed and 100 μL media with GW6471 or GW9662 at indicated concentrations was added to each well. Cell viability and toxicity were measured at 48 h. Cells were incubated with 50 μL of a 2 mg/mL solution of (3-(4,5-dimethyl-thiazole-2-yl)-2,5-[…] tetrazolium (MTT, Sigma-Aldrich) in PBS for 4 h and then exposed to 100 μL dimethyl sulfoxide (DMSO; Sigma-Aldrich). Cell viability was measured by absorption at 570 nm in a microplate spectrophotometer (Spectromax 250 plate reader). Results are shown as relative cell viability.

Series [2] concerns renal cell carcinoma. Also noted: method as in Abu Aboud et al., 2015. The following applies: 25 μM; ref Abu Aboud et al., 2015; cited from earlier work.
The test system of series [3] is renal cell carcinoma. Details: method as in Abu Aboud et al., 2015. The settings on record: 20 mg/kg; ref Abu Aboud et al., 2015; cited from earlier work.

Turning to `CCC(=O)NC[C@H](Cc1ccc(OCCc2nc(-c3ccccc3)oc2C)cc1)N/C(C)=C\C(=O)c1ccc(C(F)(F)F)cc1` [GW6471], in series [1] (NADPH-activated mouse liver microsomes), the “In vitro CLint” value was 556 μL/min/mg protein. Further, the Degradation half-life in series [1] (NADPH-activated mouse liver microsomes, 1 μM, 0.4 mg/mL protein) is recorded as 3 min. In addition, the “Stability in the absence of NADPH” value in series [1] (mouse liver microsomes without NADPH) is recorded as “stable”. For the same molecule, the “Cell viability (MTT)” value with AB1 is recorded as “lowered viability”. The “Cell-cycle arrest and apoptosis” value in the series with renal cell carcinoma [2] is “significant cell-cycle arrest and apoptosis”. The “Tumor reduction in vivo” value in the series with renal cell carcinoma [3] is listed as “significant tumor reduction”.
